For test [1], the target named is T1, Kappa-type opioid receptor (Homo sapiens, UniProt P41145). In words: Compound was evaluated for its binding affinity by displacing [3H]U-69593 to human cloned Kappa opioid receptor transfected into CHO cells using [35S]GTP-gamma-S, assay. The test is classed as functional, cell-based. (In general: GTPγS resists hydrolysis and so accumulates on activated G proteins.)

The target of test [2] is T1, Kappa-type opioid receptor. Nature of the test: Compound was evaluated for its binding affinity to CHO cells expressing cloned human Opioid receptor kappa 1 by displacing [3H]U-69593. The test is classed as cell-based.
Test [3] concerns the target T2, Delta-type opioid receptor (Homo sapiens, UniProt P41143). Nature of the test: Compound was evaluated for functional opioid activity by stimulation of [35S]GTP-gamma-S, in cloned human Opioid receptor delta 1 transfected into CHO cells. The class given is cell-based.
Test [4] deals with T2, Delta-type opioid receptor. Nature of the test: Compound was evaluated for its binding affinity to CHO cells expressing cloned human Opioid receptor delta 1 by displacement of [3H]Cl-DPDPE. The class given is cell-based. For orientation: In a radioligand displacement assay an active substance lowers the binding of a labelled ligand.
In test [5] the target is T3, Mu-type opioid receptor (Homo sapiens, UniProt P35372). Nature of the test: Compound was evaluated for its binding affinity against CHO cells transfected with cloned human Opioid receptor mu 1 by displacing [3H]DAMGO. The test is classed as cell-based.
T3 sequence (P35372 whole entry): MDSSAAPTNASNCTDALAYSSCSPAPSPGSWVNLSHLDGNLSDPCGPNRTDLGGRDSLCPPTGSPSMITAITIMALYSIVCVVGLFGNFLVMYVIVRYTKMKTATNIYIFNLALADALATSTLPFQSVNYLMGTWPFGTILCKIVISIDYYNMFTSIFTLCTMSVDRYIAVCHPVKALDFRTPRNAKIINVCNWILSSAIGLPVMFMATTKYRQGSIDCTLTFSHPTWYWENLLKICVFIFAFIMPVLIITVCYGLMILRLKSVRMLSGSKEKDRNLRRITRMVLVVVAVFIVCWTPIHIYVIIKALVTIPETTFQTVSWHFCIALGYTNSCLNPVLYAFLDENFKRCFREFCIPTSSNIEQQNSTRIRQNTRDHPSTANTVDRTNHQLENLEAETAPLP
Test [6] has as its target T3, Mu-type opioid receptor. In words: Compound was evaluated for its binding affinity by displacing DAMGO to human cloned mu opioid receptor transfected into CHO cells using [35S]GTP-gamma-S, assay. The class given is functional, cell-based.
Test [7] addresses Mu-type opioid receptor (Cavia porcellus, UniProt P97266). In words: Compound was evaluated for its binding affinity against Opioid receptor mu 1 of guinea pig brain membrane by displacing [3H]DAMGO.
In test [8] the target is T2, Delta-type opioid receptor. In words: Compound was evaluated for its binding affinity to CHO cells expressing cloned human Opioid receptor delta 1 by displacement of [3H]-Cl-DPDPE. The class given is cell-based.

Consider 3 compounds from ChEMBL document CHEMBL1132770, “Selective kappa-opioid antagonists related to naltrindole. Effect of side-chain spacer in the 5'-amidinoalkyl series” (Bioorg Med Chem Lett, 2000).

Each structure is given as a SMILES string.

T1 sequence (P41145 whole entry): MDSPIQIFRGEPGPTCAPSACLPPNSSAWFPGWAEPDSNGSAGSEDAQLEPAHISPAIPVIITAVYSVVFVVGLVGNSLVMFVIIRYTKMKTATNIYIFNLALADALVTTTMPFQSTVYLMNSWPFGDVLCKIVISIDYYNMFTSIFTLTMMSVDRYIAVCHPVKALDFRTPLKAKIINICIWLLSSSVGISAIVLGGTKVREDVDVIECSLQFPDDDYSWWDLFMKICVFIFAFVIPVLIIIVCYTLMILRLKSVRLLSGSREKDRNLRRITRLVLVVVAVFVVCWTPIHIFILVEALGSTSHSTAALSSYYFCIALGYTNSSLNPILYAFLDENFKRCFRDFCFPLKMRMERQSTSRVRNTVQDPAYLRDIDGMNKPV
T2 sequence (P41143 whole entry): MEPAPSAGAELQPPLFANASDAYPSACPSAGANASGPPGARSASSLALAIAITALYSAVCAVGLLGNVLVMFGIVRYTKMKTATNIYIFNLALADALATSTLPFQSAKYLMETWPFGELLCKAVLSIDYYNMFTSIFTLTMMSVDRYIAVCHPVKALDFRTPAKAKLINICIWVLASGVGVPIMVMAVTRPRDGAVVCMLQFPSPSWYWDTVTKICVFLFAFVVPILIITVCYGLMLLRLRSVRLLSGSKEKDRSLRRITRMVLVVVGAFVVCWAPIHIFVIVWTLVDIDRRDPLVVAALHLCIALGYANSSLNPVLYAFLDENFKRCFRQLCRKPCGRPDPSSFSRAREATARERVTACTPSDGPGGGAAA
Sequence of Mu-type opioid receptor (Cavia porcellus, UniProt P97266) (P97266 whole entry): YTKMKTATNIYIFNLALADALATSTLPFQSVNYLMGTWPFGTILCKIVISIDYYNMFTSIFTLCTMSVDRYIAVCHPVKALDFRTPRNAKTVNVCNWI

For `NCCc1ccc2[nH]c3c(c2c1)C[C@@]1(O)C2Cc4ccc(O)c5c4C1(CCN2CC1CC1)C3O5` (some centres undefined), the Ki in test [1] was determined as 0.12 nM; in test [2], 1.08 nM; in test [3], 3.79 nM; in test [4], 28.2 nM; at Mu-type opioid receptor [5], 29.6 nM; on Mu-type opioid receptor [6] it was 17.4 nM.

Regarding `CCCCC(=N)NCc1ccc2[nH]c3c(c2c1)C[C@@]1(O)C2Cc4ccc(O)c5c4C1(CCN2CC1CC1)C3O5` (some centres undefined), the Ki at Mu-type opioid receptor [7] turned out to be 3.5 nM; in test [8], 5.5 nM.

For the compound `CCCCC(=N)NCCc1ccc2[nH]c3c(c2c1)C[C@@]1(O)C2Cc4ccc(O)c5c4C1(CCN2CC1CC1)C3O5` (some centres undefined), the Ki stood at 0.17 nM in test [1]; 0.3 nM in test [2]; 3.31 nM in test [3]; 38.2 nM in test [4]; 219 nM on Mu-type opioid receptor [5]; 5.33 nM on Mu-type opioid receptor [6].

Broadly, the Ki is a dissociation constant, usually derived from enzyme kinetics or from competition with a known ligand. Higher therefore signals a looser hold on the target.
